Results reported in patent US9089572B2, “Inhibitors of p97” (California Institute of Technology, priority 2008, dated 2015).

Each molecule was assayed on RPMI8226 (assay: MTT cell growth assay, RPMI8226). Conditions: Homo sapiens, RPMI-8226, 48 or 72 h, read-out: Cell line inhibition of growth GI50 RPMI8226.
Format: cell-based
Procedure: (§1) To probe further the effect of compound 2 and related compounds 1, 3, 5, 6 and 7, various concentrations of these compounds were added to 13 different cell lines and incubated for 48 or 72 h. An MTT assay was then performed to evaluate cell growth and survival.

| Compound | GI50 |
| --- | --- |
| C=CC(=O)N(C(=O)C=C)c1ncnc2c1c(-c1ccccc1)nn2C(C)(C)C [Compound 3] | 1.2 ± 0.6 µM |
| C=CC(=O)Nc1ncnc2c1c(-c1ccc3ccccc3c1)nn2C(C)(C)C [Compound 6] | 1.2 ± 0.3 µM |
| CC(C)(C)n1nc(-c2ccc3ccccc3c2)c2c(N)ncnc21 [Compound 5] | 9.8 ± 1.8 µM |
| C=CC(=O)N(C(=O)C=C)c1ncnc2c1c(-c1ccc3ccccc3c1)nn2C(C)(C)C [Compound 7] | 3.4 ± 1.7 µM |

The molecules below were run on RL (assay: MTT cell growth assay, RL). Conditions: Homo sapiens, 48 or 72 h, read-out: Cell line inhibition of growth GI50 RL.
Format: cell-based
Procedure: as §1

| Compound | GI50 |
| --- | --- |
| C=CC(=O)N(C(=O)C=C)c1ncnc2c1c(-c1ccccc1)nn2C(C)(C)C [Compound 3] | 5 ± 2 µM |
| C=CC(=O)Nc1ncnc2c1c(-c1ccc3ccccc3c1)nn2C(C)(C)C [Compound 6] | 1.3 ± 0.4 µM |
| CC(C)(C)n1nc(-c2ccc3ccccc3c2)c2c(N)ncnc21 [Compound 5] | 0.7 ± 0.2 µM |
| C=CC(=O)N(C(=O)C=C)c1ncnc2c1c(-c1ccc3ccccc3c1)nn2C(C)(C)C [Compound 7] | 1.4 ± 0.7 µM |

Each molecule was assayed against wild type murine p97 (Mus musculus, UniProt Q01853) (assay: In vitro ATP hydrolysis (malachite green ATPase assay), wild type murine p97). Conditions: 200 nM p97, 20 min preincubation at 23° C., malachite green; read-out: In vitro ATP Hydrolysis Activity IC50 WT-mP97.
wild type murine p97, sequence (Q01853 whole entry): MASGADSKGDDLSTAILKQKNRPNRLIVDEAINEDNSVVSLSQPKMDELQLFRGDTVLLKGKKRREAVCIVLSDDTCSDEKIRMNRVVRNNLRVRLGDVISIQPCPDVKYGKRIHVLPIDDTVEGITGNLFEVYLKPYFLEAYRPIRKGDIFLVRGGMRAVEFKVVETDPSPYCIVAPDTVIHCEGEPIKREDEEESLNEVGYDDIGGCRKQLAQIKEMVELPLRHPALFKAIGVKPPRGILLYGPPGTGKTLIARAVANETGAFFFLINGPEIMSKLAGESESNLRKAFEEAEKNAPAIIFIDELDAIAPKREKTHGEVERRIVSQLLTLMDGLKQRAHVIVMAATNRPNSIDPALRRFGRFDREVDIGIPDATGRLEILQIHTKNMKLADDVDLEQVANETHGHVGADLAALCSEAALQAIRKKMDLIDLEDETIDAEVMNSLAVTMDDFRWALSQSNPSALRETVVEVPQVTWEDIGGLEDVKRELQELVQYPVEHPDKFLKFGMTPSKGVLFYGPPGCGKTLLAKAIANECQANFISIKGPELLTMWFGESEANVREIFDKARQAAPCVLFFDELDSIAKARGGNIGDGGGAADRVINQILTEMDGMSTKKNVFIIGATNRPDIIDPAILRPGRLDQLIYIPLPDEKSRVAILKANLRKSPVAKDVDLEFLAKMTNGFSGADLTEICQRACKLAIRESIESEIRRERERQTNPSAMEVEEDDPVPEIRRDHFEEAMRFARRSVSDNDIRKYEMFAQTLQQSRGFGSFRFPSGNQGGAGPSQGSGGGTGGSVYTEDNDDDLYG
Format: biochemical
Procedure: (§2) Compounds were tested for their ability to inhibit the ATPase activity of purified wild type murine p97 and T532C-Cdc48, a mutant of yeast Cdc48 in which the residue analogous to cysteine 522, threonine 532, was converted to cysteine.

| Compound | IC50 |
| --- | --- |
| C=CC(=O)N(C(=O)C=C)c1ncnc2c1c(-c1ccccc1)nn2C(C)(C)C [Compound 3] | 1.1 ± 0.7 µM |
| C=CC(=O)Nc1ncnc2c1c(-c1ccc3ccccc3c1)nn2C(C)(C)C [Compound 6] | 3 ± 1 µM |
| CC(C)(C)n1nc(-c2ccc3ccccc3c2)c2c(N)ncnc21 [Compound 5] | > 100 µM |
| C=CC(=O)N(C(=O)C=C)c1ncnc2c1c(-c1ccc3ccccc3c1)nn2C(C)(C)C [Compound 7] | 1.3 ± 0.7 µM |
| CC(C)(C)n1nc(-c2ccccc2)c2c(NC(=O)CCl)ncnc21 [Compound 4] | 4.5 ± 3.5 µM |

These molecules were tested on Molt4 (assay: MTT cell growth assay, Molt4). Conditions: Homo sapiens, MOLT-4, 48 or 72 h, read-out: Cell line inhibition of growth GI50 Molt4.
Format: cell-based
Procedure: as §1

| Compound | GI50 |
| --- | --- |
| C=CC(=O)N(C(=O)C=C)c1ncnc2c1c(-c1ccccc1)nn2C(C)(C)C [Compound 3] | 2.7 ± 0.8 µM |
| C=CC(=O)Nc1ncnc2c1c(-c1ccc3ccccc3c1)nn2C(C)(C)C [Compound 6] | 0.7 ± 0.1 µM |
| CC(C)(C)n1nc(-c2ccc3ccccc3c2)c2c(N)ncnc21 [Compound 5] | 0.6 ± 0.2 µM |
| C=CC(=O)N(C(=O)C=C)c1ncnc2c1c(-c1ccc3ccccc3c1)nn2C(C)(C)C [Compound 7] | 1.2 ± 0.5 µM |

Each molecule was assayed on DU145 (assay: MTT cell growth assay, DU145). Conditions: Homo sapiens, DU-145, 48 or 72 h, read-out: Cell line inhibition of growth GI50 DU145.
Format: cell-based
Procedure: as §1

| Compound | GI50 |
| --- | --- |
| C=CC(=O)N(C(=O)C=C)c1ncnc2c1c(-c1ccccc1)nn2C(C)(C)C [Compound 3] | 8.2 ± 2.4 µM |
| C=CC(=O)Nc1ncnc2c1c(-c1ccc3ccccc3c1)nn2C(C)(C)C [Compound 6] | 2.3 ± 0.7 µM |
| CC(C)(C)n1nc(-c2ccc3ccccc3c2)c2c(N)ncnc21 [Compound 5] | 3.5 ± 0.6 µM |
| C=CC(=O)N(C(=O)C=C)c1ncnc2c1c(-c1ccc3ccccc3c1)nn2C(C)(C)C [Compound 7] | 4.9 ± 0.6 µM |
| CC(C)(C)n1nc(-c2ccccc2)c2c(NC(=O)CCl)ncnc21 [Compound 4] | 40 ± 10 µM |

What follows are molecules tested on MDAMB-231 (assay: MTT cell growth assay, MDAMB-231). Conditions: Homo sapiens, MDA-MB-231, 48 or 72 h, read-out: Cell line inhibition of growth GI50 MDAMB-231.
Format: cell-based
Procedure: as §1

| Compound | GI50 |
| --- | --- |
| C=CC(=O)N(C(=O)C=C)c1ncnc2c1c(-c1ccccc1)nn2C(C)(C)C [Compound 3] | 24 ± 10 µM |
| C=CC(=O)Nc1ncnc2c1c(-c1ccc3ccccc3c1)nn2C(C)(C)C [Compound 6] | 5.9 ± 2.6 µM |
| CC(C)(C)n1nc(-c2ccc3ccccc3c2)c2c(N)ncnc21 [Compound 5] | 10 ± 1.8 µM |
| C=CC(=O)N(C(=O)C=C)c1ncnc2c1c(-c1ccc3ccccc3c1)nn2C(C)(C)C [Compound 7] | 21 ± 11 µM |

What follows are molecules tested on LNCaP (assay: MTT cell growth assay, LNCaP). Conditions: Homo sapiens, 48 or 72 h, read-out: Cell line inhibition of growth GI50 LNCaP.
Format: cell-based
Procedure: as §1

| Compound | GI50 |
| --- | --- |
| C=CC(=O)N(C(=O)C=C)c1ncnc2c1c(-c1ccccc1)nn2C(C)(C)C [Compound 3] | 4.6 ± 1.1 µM |
| C=CC(=O)Nc1ncnc2c1c(-c1ccc3ccccc3c1)nn2C(C)(C)C [Compound 6] | 2.5 ± 0.7 µM |
| CC(C)(C)n1nc(-c2ccc3ccccc3c2)c2c(N)ncnc21 [Compound 5] | 7.6 ± 1.7 µM |
| C=CC(=O)N(C(=O)C=C)c1ncnc2c1c(-c1ccc3ccccc3c1)nn2C(C)(C)C [Compound 7] | 11 ± 4 µM |
| CC(C)(C)n1nc(-c2ccccc2)c2c(NC(=O)CCl)ncnc21 [Compound 4] | 23 ± 4 µM |

What follows are molecules tested on CCRF-CEM (assay: MTT cell growth assay, CCRF-CEM). Conditions: Homo sapiens, 48 or 72 h, read-out: Cell line inhibition of growth GI50 CCRF-CEM.
Format: cell-based
Procedure: as §1

| Compound | GI50 |
| --- | --- |
| C=CC(=O)N(C(=O)C=C)c1ncnc2c1c(-c1ccccc1)nn2C(C)(C)C [Compound 3] | 7.2 ± 4.3 µM |
| C=CC(=O)Nc1ncnc2c1c(-c1ccc3ccccc3c1)nn2C(C)(C)C [Compound 6] | 1.3 ± 0.4 µM |
| CC(C)(C)n1nc(-c2ccc3ccccc3c2)c2c(N)ncnc21 [Compound 5] | 3.9 ± 1.3 µM |
| C=CC(=O)N(C(=O)C=C)c1ncnc2c1c(-c1ccc3ccccc3c1)nn2C(C)(C)C [Compound 7] | 2.4 ± 1.1 µM |

What follows are molecules tested on HTC116 WT (assay: MTT cell growth assay, HTC116 WT). Conditions: 48 or 72 h, read-out: Cell line inhibition of growth GI50 HTC116 WT.
Format: cell-based
Procedure: as §1

| Compound | GI50 |
| --- | --- |
| C=CC(=O)N(C(=O)C=C)c1ncnc2c1c(-c1ccccc1)nn2C(C)(C)C [Compound 3] | 5.1 ± 2 µM |
| C=CC(=O)Nc1ncnc2c1c(-c1ccc3ccccc3c1)nn2C(C)(C)C [Compound 6] | 2.8 ± 1.6 µM |
| CC(C)(C)n1nc(-c2ccc3ccccc3c2)c2c(N)ncnc21 [Compound 5] | 4.3 ± 1.8 µM |
| C=CC(=O)N(C(=O)C=C)c1ncnc2c1c(-c1ccc3ccccc3c1)nn2C(C)(C)C [Compound 7] | 5.5 ± 1.4 µM |
| CC(C)(C)n1nc(-c2ccccc2)c2c(NC(=O)CCl)ncnc21 [Compound 4] | 19 ± 6 µM |

What follows are molecules tested on HeLa (assay: MTT cell growth assay, HeLa). Conditions: Homo sapiens, 48 or 72 h, read-out: Cell line inhibition of growth GI50 HeLa.
Format: cell-based
Procedure: as §1

| Compound | GI50 |
| --- | --- |
| C=CC(=O)N(C(=O)C=C)c1ncnc2c1c(-c1ccccc1)nn2C(C)(C)C [Compound 3] | 5.3 ± 2.5 µM |
| C=CC(=O)Nc1ncnc2c1c(-c1ccc3ccccc3c1)nn2C(C)(C)C [Compound 6] | 1.2 ± 0.2 µM |
| CC(C)(C)n1nc(-c2ccc3ccccc3c2)c2c(N)ncnc21 [Compound 5] | 1 ± 0.3 µM |
| C=CC(=O)N(C(=O)C=C)c1ncnc2c1c(-c1ccc3ccccc3c1)nn2C(C)(C)C [Compound 7] | 1.8 ± 0.6 µM |

Each molecule was assayed against T532C-Cdc48 (Saccharomyces cerevisiae, UniProt P25694, T532C) (assay: In vitro ATP hydrolysis (malachite green ATPase assay), T532C-Cdc48). Conditions: not given.
T532C-Cdc48, sequence (P25694 whole entry T532C): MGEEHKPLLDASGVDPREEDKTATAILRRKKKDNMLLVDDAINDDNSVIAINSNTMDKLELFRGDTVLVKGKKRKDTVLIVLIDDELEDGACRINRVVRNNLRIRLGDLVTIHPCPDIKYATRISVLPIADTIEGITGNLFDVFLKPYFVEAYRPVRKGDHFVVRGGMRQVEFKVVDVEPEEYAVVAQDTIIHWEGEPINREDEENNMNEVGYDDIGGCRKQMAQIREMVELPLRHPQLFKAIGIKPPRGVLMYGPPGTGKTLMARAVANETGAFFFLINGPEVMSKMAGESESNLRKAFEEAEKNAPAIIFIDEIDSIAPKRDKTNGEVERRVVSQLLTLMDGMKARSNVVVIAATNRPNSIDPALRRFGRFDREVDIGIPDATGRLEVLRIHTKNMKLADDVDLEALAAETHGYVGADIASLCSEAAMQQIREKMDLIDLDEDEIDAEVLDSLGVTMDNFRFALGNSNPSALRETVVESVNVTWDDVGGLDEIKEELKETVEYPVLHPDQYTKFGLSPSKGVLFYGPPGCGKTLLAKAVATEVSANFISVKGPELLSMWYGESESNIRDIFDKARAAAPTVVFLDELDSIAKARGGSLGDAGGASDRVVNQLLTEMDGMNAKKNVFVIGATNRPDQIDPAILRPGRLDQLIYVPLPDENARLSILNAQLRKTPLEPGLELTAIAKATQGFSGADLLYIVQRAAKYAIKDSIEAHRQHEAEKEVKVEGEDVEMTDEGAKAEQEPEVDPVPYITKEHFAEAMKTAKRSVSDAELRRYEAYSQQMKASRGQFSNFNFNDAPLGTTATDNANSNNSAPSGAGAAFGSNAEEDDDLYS
Format: biochemical, yeast
Procedure: as §2
To determine whether cysteine 522 is necessary for inhibition of p97 by compound 2, a mutant of p97 was constructed in which cysteine 522 was converted to either alanine (C522A-mp97) or threonine (C522T-mp97). The IC50 values of compound 2 were measured the against various enzymes during a 20-minute preincubation (see Table 2). Mutation of cysteine 522 in p97 to either alanine or threonine decreased sensitivity to compound 2 by greater than 100-fold. On the other hand, yeast Cdc48, which normally is quite resistant to compound 2, became nearly 30-fold more sensitive to the compound upon introduction of a cysteine in place of threonine 532.

| Compound | IC50 |
| --- | --- |
| C=CC(=O)N(C(=O)C=C)c1ncnc2c1c(-c1ccccc1)nn2C(C)(C)C [Compound 3] | 26 ± 6 µM |
| C=CC(=O)Nc1ncnc2c1c(-c1ccc3ccccc3c1)nn2C(C)(C)C [Compound 6] | 24 ± 7 µM |
| C=CC(=O)N(C(=O)C=C)c1ncnc2c1c(-c1ccc3ccccc3c1)nn2C(C)(C)C [Compound 7] | 22 ± 11 µM |
| CC(C)(C)n1nc(-c2ccccc2)c2c(NC(=O)CCl)ncnc21 [Compound 4] | 35 ± 8 µM |

The molecules below were run on PC3 (assay: MTT cell growth assay, PC3). Conditions: Homo sapiens, PC-3, 48 or 72 h, read-out: Cell line inhibition of growth GI50 PC3.
Format: cell-based
Procedure: as §1

| Compound | GI50 |
| --- | --- |
| C=CC(=O)N(C(=O)C=C)c1ncnc2c1c(-c1ccccc1)nn2C(C)(C)C [Compound 3] | 3.3 ± 0.9 µM |
| C=CC(=O)Nc1ncnc2c1c(-c1ccc3ccccc3c1)nn2C(C)(C)C [Compound 6] | 0.3 ± 0.23 µM |
| CC(C)(C)n1nc(-c2ccc3ccccc3c2)c2c(N)ncnc21 [Compound 5] | 5.9 ± 0.5 µM |
| C=CC(=O)N(C(=O)C=C)c1ncnc2c1c(-c1ccc3ccccc3c1)nn2C(C)(C)C [Compound 7] | 6.2 ± 1.2 µM |
| CC(C)(C)n1nc(-c2ccccc2)c2c(NC(=O)CCl)ncnc21 [Compound 4] | 6.3 ± 0.6 µM |

Each molecule was assayed on HCT116 p53−/− (assay: MTT cell growth assay, HCT116 p53−/−). Conditions: Homo sapiens, HCT-116, 48 or 72 h, read-out: Cell line inhibition of growth GI50 HCT116 p53−/−.
Format: cell-based
Procedure: as §1

| Compound | GI50 |
| --- | --- |
| C=CC(=O)N(C(=O)C=C)c1ncnc2c1c(-c1ccccc1)nn2C(C)(C)C [Compound 3] | 4 ± 0.9 µM |
| C=CC(=O)Nc1ncnc2c1c(-c1ccc3ccccc3c1)nn2C(C)(C)C [Compound 6] | 2.4 ± 1 µM |
| CC(C)(C)n1nc(-c2ccc3ccccc3c2)c2c(N)ncnc21 [Compound 5] | 12 ± 3 µM |
| C=CC(=O)N(C(=O)C=C)c1ncnc2c1c(-c1ccc3ccccc3c1)nn2C(C)(C)C [Compound 7] | 13 ± 4 µM |
| CC(C)(C)n1nc(-c2ccccc2)c2c(NC(=O)CCl)ncnc21 [Compound 4] | 20 ± 5 µM |

These molecules were tested on MCF7 (assay: MTT cell growth assay, MCF7). Conditions: Homo sapiens, 48 or 72 h, read-out: Cell line inhibition of growth GI50 MCF7.
Format: cell-based
Procedure: as §1

| Compound | GI50 |
| --- | --- |
| C=CC(=O)N(C(=O)C=C)c1ncnc2c1c(-c1ccccc1)nn2C(C)(C)C [Compound 3] | 6.6 ± 2.2 µM |
| C=CC(=O)Nc1ncnc2c1c(-c1ccc3ccccc3c1)nn2C(C)(C)C [Compound 6] | 1.9 ± 0.4 µM |
| CC(C)(C)n1nc(-c2ccc3ccccc3c2)c2c(N)ncnc21 [Compound 5] | 2.3 ± 0.4 µM |
| C=CC(=O)N(C(=O)C=C)c1ncnc2c1c(-c1ccc3ccccc3c1)nn2C(C)(C)C [Compound 7] | 3.6 ± 1 µM |
